ChEMBL document CHEMBL5465560, “Selectivity Literature for EUbOPEN Chemogenomic Library” (2024)

Key:
[1] = target: Vascular endothelial growth factor receptor 2 (Homo sapiens, UniProt P35968); assay: Selectivity interaction (Upstate Kinase Profiler service (Millipore)) EUB0000056c KDR; settings: at 1 µM
[2] = target: Ribosomal protein S6 kinase alpha-5 (Homo sapiens) (UniProt O75582); assay: Selectivity interaction (Upstate Kinase Profiler service (Millipore)) EUB0000056c RPS6KA5; settings: at 1 µM
Ribosomal protein S6 kinase alpha-5 (Homo sapiens), sequence (O75582 whole entry, looked up): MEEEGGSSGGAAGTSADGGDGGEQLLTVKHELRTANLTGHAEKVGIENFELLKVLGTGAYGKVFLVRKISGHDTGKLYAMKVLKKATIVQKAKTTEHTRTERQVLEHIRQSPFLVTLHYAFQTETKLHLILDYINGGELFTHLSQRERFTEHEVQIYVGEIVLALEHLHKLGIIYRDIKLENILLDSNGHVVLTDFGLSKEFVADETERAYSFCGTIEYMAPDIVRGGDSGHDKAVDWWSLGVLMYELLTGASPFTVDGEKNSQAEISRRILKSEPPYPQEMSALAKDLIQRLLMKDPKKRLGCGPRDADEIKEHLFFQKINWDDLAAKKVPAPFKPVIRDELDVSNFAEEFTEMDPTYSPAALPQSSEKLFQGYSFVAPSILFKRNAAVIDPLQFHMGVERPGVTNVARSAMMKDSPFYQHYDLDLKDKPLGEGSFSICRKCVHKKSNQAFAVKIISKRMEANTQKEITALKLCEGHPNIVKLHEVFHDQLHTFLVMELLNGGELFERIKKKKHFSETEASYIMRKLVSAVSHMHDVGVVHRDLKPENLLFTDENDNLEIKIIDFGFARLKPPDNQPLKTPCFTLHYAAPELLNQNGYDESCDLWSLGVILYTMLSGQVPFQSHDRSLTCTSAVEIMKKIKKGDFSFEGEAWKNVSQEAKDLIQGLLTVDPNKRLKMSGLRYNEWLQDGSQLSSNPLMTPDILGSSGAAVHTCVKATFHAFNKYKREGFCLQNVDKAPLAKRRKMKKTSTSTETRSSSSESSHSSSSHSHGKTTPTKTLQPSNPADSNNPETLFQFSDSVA

[3] = target: ALK tyrosine kinase receptor (Homo sapiens, UniProt Q9UM73); assay: Selectivity interaction (ProQinase) EUB0000171b ALK; settings: at 5 µM
[4] = target: Serine/threonine-protein kinase PAK 3 (Homo sapiens) (UniProt O75914); assay: Selectivity interaction (KinomeScan (DiscoverX)) EUB0000666a PAK3; settings: at 10 µM
Serine/threonine-protein kinase PAK 3 (Homo sapiens), sequence (O75914 whole entry, looked up): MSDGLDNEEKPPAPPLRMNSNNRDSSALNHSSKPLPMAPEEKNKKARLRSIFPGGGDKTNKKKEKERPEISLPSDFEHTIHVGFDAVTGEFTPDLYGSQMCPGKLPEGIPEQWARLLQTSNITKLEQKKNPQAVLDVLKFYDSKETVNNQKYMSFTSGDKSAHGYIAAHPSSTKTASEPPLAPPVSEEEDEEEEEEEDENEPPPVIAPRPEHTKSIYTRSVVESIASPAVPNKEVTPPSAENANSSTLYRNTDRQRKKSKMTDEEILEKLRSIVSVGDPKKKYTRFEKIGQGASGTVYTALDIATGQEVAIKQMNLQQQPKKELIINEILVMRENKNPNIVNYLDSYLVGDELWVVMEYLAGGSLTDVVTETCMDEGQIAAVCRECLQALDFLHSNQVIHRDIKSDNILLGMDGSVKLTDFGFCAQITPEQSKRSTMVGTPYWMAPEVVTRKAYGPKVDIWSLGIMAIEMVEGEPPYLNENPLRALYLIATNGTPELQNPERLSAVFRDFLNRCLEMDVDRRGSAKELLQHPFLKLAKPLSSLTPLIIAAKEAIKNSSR

[5] = target: Serine/threonine-protein kinase MARK2 (Homo sapiens) (UniProt Q7KZI7); settings: at 10 µM
Serine/threonine-protein kinase MARK2 (Homo sapiens), sequence (Q7KZI7 whole entry): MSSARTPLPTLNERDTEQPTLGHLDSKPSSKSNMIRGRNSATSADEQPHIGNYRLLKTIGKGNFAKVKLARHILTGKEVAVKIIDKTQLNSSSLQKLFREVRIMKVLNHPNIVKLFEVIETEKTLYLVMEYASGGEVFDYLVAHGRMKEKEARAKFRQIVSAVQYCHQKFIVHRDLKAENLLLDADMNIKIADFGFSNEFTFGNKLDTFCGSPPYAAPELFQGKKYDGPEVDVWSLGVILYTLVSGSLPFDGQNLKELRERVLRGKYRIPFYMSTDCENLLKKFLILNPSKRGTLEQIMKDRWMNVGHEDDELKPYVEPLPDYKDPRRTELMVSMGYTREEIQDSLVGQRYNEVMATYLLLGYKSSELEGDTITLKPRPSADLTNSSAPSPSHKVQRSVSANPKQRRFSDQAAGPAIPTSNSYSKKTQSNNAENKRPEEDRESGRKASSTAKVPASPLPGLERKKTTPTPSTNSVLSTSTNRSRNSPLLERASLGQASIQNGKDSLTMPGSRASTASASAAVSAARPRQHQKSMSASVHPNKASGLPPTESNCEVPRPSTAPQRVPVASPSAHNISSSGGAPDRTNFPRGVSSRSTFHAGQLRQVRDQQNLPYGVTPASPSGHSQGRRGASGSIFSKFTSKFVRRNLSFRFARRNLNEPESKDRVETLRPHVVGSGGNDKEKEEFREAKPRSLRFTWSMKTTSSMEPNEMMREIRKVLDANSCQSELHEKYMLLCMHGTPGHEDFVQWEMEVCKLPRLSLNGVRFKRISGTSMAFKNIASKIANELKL

[6] = target: T1, Dual specificity mitogen-activated protein kinase kinase 6 (Homo sapiens) (UniProt P52564); assay: Selectivity interaction (ActivX KiNativ screen (kinase selectivity in THP-1 cell lysates)) EUB0000639a MAP2K6; assay type: subcellular; settings: lysate, at 0.04 µM
T1 sequence (whole entry): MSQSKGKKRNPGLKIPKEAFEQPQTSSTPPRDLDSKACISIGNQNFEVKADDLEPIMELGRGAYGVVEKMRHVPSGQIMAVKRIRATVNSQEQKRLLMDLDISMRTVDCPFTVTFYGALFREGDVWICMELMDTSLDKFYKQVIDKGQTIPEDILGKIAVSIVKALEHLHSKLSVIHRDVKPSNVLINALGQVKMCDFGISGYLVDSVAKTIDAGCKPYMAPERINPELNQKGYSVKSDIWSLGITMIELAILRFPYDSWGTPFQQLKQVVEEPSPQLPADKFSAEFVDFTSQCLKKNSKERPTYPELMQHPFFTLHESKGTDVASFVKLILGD

[7] = target: T2, cGMP-dependent protein kinase 1 (Homo sapiens) (UniProt Q13976); assay: Selectivity interaction (SelectScreen profiling (Invitrogen)) EUB0000607a PRKG1; settings: at 2 µM
T2 sequence (whole entry): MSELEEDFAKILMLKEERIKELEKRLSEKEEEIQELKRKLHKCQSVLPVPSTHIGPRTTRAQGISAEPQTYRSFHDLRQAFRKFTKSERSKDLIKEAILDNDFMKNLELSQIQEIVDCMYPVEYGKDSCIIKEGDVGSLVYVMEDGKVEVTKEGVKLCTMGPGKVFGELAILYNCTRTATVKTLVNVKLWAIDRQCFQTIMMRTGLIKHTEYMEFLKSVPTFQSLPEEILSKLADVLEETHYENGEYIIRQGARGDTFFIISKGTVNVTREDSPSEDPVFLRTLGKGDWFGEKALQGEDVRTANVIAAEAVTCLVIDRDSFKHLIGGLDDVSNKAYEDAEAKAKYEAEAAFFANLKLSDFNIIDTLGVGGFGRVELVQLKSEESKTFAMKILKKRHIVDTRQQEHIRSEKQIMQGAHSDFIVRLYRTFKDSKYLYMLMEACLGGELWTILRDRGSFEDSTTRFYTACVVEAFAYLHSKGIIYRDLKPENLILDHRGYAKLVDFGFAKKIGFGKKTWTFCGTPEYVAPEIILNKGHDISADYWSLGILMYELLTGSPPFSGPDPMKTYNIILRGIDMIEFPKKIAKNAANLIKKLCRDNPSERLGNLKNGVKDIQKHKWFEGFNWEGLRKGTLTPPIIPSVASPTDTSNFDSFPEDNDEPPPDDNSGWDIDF

[8] = target: Ribosomal protein S6 kinase alpha-5 (Homo sapiens) (UniProt O75582); assay: Selectivity interaction (KinomeScan (DiscoverX)) EUB0000607a RPS6KA5; settings: at 10 µM
[9] = target: T3, Serine/threonine-protein kinase 3 (Homo sapiens) (UniProt Q13188); assay: Selectivity interaction (KinomeScan (DiscoverX)) EUB0000595a STK3; settings: at 10 µM
T3 sequence (whole entry): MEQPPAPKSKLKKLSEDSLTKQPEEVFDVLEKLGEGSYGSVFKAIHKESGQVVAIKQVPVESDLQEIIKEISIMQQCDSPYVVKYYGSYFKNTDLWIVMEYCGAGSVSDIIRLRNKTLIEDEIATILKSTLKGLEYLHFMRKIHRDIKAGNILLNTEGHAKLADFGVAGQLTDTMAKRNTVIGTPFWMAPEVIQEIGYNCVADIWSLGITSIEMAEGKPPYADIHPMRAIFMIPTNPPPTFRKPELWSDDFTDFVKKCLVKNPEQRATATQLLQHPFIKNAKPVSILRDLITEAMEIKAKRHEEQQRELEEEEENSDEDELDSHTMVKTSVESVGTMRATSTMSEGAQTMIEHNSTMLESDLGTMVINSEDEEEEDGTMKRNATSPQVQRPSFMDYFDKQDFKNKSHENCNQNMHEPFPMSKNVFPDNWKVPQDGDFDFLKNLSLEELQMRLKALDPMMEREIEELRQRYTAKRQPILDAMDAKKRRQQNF

[10] = target: Mitogen-activated protein kinase 9 (Homo sapiens, UniProt P45984); assay: Selectivity interaction (KinomeScan (DiscoverX)) EUB0000045b MAPK9
Mitogen-activated protein kinase 9, sequence (P45984 whole entry, looked up): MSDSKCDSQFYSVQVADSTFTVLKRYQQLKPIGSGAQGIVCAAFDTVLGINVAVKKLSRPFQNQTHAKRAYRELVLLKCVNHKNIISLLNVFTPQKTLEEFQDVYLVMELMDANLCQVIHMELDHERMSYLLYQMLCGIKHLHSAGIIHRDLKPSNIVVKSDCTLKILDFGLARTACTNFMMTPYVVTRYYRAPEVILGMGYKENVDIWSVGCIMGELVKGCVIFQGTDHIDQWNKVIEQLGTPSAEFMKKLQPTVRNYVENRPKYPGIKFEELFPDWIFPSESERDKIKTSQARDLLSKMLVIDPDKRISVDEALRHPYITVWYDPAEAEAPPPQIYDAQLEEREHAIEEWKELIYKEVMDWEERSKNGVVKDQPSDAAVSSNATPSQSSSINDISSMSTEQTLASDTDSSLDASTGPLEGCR

[11] = system: Mast/stem cell growth factor receptor Kit (Homo sapiens), P10721 [V559D,V654A]; assay: (§1) Selectivity interaction (KinomeScan (DiscoverX)) EUB0001619a KIT; settings: at 1 µM
Mast/stem cell growth factor receptor Kit (Homo sapiens), P10721 [V559D,V654A], sequence (P10721 whole entry V559D/V654A): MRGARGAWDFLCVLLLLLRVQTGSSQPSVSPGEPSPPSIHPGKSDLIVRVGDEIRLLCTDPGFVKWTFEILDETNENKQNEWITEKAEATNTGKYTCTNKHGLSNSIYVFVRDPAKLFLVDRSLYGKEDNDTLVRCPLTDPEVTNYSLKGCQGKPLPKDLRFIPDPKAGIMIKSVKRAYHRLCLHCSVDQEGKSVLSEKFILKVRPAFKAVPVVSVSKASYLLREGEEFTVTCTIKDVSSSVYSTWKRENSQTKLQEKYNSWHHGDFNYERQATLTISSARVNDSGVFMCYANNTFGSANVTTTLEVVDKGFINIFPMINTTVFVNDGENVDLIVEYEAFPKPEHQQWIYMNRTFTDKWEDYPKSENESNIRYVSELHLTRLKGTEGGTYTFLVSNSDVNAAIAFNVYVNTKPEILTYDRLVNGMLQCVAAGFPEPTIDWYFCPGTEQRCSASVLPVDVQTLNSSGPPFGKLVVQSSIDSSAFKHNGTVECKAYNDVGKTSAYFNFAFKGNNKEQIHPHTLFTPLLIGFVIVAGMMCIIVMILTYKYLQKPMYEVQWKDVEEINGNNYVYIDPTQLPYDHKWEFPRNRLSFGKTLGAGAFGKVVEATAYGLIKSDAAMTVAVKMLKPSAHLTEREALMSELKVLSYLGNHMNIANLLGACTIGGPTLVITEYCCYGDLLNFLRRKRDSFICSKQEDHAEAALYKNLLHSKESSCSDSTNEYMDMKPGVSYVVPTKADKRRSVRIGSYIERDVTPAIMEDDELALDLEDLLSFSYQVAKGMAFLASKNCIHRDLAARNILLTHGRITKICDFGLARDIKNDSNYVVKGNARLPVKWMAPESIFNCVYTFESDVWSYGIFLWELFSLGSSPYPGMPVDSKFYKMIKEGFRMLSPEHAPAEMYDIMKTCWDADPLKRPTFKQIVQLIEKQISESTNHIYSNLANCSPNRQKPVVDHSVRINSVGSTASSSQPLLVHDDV

[12] = system: Mast/stem cell growth factor receptor Kit (Homo sapiens), P10721 [D816H]; assay: as §1; settings: at 1 µM
Mast/stem cell growth factor receptor Kit (Homo sapiens), P10721 [D816H], sequence (P10721 whole entry D816H): as the sequence (P10721 whole entry V559D/V654A) above, with D559V, A654V, D816H counted along it

[13] = system: Mast/stem cell growth factor receptor Kit (Homo sapiens), P10721 [A829P]; assay: as §1; settings: at 1 µM
Mast/stem cell growth factor receptor Kit (Homo sapiens), P10721 [A829P], sequence (P10721 whole entry A829P): as the sequence (P10721 whole entry V559D/V654A) above, with D559V, A654V, A829P counted along it

[14] = system: Mast/stem cell growth factor receptor Kit (Homo sapiens), P10721 [D816V]; assay: as §1; settings: at 1 µM
Mast/stem cell growth factor receptor Kit (Homo sapiens), P10721 [D816V], sequence (P10721 whole entry D816V): as the sequence (P10721 whole entry V559D/V654A) above, with D559V, A654V, D816V counted along it

[15] = target: Mast/stem cell growth factor receptor Kit (Homo sapiens, UniProt P10721); assay: as §1; settings: at 1 µM
Mast/stem cell growth factor receptor Kit, sequence (P10721 whole entry): as the sequence (P10721 whole entry V559D/V654A) above, with D559V, A654V counted along it

[16] = system: Mast/stem cell growth factor receptor Kit (Homo sapiens), P10721 [V559D]; assay: as §1; settings: at 1 µM
Mast/stem cell growth factor receptor Kit (Homo sapiens), P10721 [V559D], sequence (P10721 whole entry V559D): as the sequence (P10721 whole entry V559D/V654A) above, with A654V counted along it

[17] = system: Mast/stem cell growth factor receptor Kit (Homo sapiens), P10721 [L576P]; assay: as §1; settings: at 1 µM
Mast/stem cell growth factor receptor Kit (Homo sapiens), P10721 [L576P], sequence (P10721 whole entry L576P): as the sequence (P10721 whole entry V559D/V654A) above, with D559V, L576P, A654V counted along it

[18] = system: Mast/stem cell growth factor receptor Kit (Homo sapiens), P10721 [V559D,T670I]; assay: as §1; settings: at 1 µM
Mast/stem cell growth factor receptor Kit (Homo sapiens), P10721 [V559D,T670I], sequence (P10721 whole entry V559D/T670I): as the sequence (P10721 whole entry V559D/V654A) above, with A654V, T670I counted along it

## Cc1ccc(-c2ccc3c(ccc4sc5c(c43)NC[C@@H](C)NC5=O)n2)cn1
[1]
  % of inhibition: 32%
[2]
  % of inhibition: -9%

## C=CC(=O)Nc1cccc(C(=O)Nc2ccc(Nc3cc(-c4[nH]c(SC)nc4C)ccn3)cc2)c1
[3]
  % of control: 96%

## O=C(NOC[C@H](O)CO)c1ccc(F)c(F)c1Nc1ccc(I)cc1F
[4]
  % of control: 100%

## Cc1cc([C@@H](C)Nc2ccccc2C(=O)O)c2nc(N3CCOCC3)cc(=O)n2c1 [AZD-6482]
[5]
  % of control: 90%

## CC[C@@H]1[C@H](F)C(=O)N[C@@H]1COc1nccc2cc(C(N)=O)c(OC)cc12 [ZIMLOVISERTIB]
[6]
  % of inhibition: 4.7%

## CNC(=O)Nc1ccc(-c2nc(N3CC4CCC(C3)O4)c3cnn(C4CCC5(CC4)OCCO5)c3n2)cc1
[7]
  % of inhibition: 1%
[8]
  % of control: 86%

## COCC(=O)NC/C=C/c1ccc2ncnc(Nc3ccc(Oc4ccc(C)nc4)c(C)c3)c2c1 [CP-724714]
[9]
  % of control: 82%

## C=CC(=O)Nc1cc(-n2c(=O)ccc3cnc4ccc(-c5ccc(NS(C)(=O)=O)cc5)cc4c32)ccc1C
[10]; at 1 µM
  % of control: 100%
[10]; at 10 µM
  % of control: 24%

## N#Cc1cccc(-c2c[nH]c3ncnc(N4CCOCC4)c23)c1
[11]
  % of control: 72%
[12]
  % of control: 92%
[13]
  % of control: 50%
[14]
  % of control: 99%
[15]
  % of control: 100%
[16]
  % of control: 100%
[17]
  % of control: 89%
[18]
  % of control: 100%
